We go through eleven compounds from ChEMBL document CHEMBL1201862, “PubChem BioAssay data set” (2004).

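How tested: cells in 96-well plates exposed to compound for 48 hours at five concentrations. At the GI50, growth is halved.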 Activity calls are given as the source filed them. Rule as the data show it: active = GI50 up to about 1.1 µM and inactive = higher. Some results are limits rather than exact numbers.

Some test systems named below: SK-MEL-28; COLO 205; HT-29; HL-60; EKVX; K562; CAKI-1; NCI-H522; IGROV-1; RPMI-8226; SK-MEL-5; NCI-H226; U-251; HCT-15; SK-OV-3; OVCAR-8; UO-31; HCT-116; HCC 2998; HOP-62.
Test in all cases: NCI anticancer screen, dose series, 48 h

Consider `COc1ccc(/C(Cl)=C(\CN(C)C)c2ccc(OC)c(OC)c2)cc1OC`, for which the GI50 with SK-MEL-28 was > 100 µM (inactive); in the experiment with COLO 205 it was > 100 µM (inactive); in the experiment on HT-29, > 100 µM (inactive); with HL-60, 21.2 µM (inactive); in the experiment with EKVX, > 100 µM (inactive); with K562, > 100 µM (inactive). Besides, the GI50 in the experiment on CAKI-1, in the experiment with NCI-H522, in the experiment on IGROV-1, in the experiment with RPMI-8226, in the experiment on SK-MEL-5 and with NCI-H226 was > 100 µM (inactive) each time. The GI50 with U-251 was > 100 µM (inactive); in the experiment on HCT-15 it was above 100 µM; with SK-OV-3 it was > 100 µM (inactive); in the experiment on OVCAR-8, > 100 µM (inactive); with UO-31 it was > 100 µM (inactive).
As to `CSc1nc(NC2OCC(OC(C)=O)C(OC(C)=O)C2OC(C)=O)c(/N=C(\C)C(C)=O)c(=O)[nH]1` (stereo unspecified), the GI50 with SK-MEL-28, in the experiment on COLO 205, in the experiment with HT-29, with HL-60, in the experiment with EKVX and in the experiment with K562 was > 100 µM (inactive) throughout. The GI50 was > 100 µM (inactive) in the experiment on HCT-116; > 100 µM (inactive) in the experiment on CAKI-1; > 100 µM (inactive) in the experiment on IGROV-1; > 100 µM (inactive) in the experiment with RPMI-8226; > 100 µM (inactive) with SK-MEL-5; 0.164 µM (active) in the experiment with NCI-H226. In addition, the GI50 in the experiment on U-251 was > 100 µM (inactive); with HCT-15, above 100 µM; with OVCAR-8 it was > 100 µM (inactive).
Turning to `COc1ccc([C@H]2c3cc4c(cc3OC(O)(CO)[C@H]2C(=O)O)OCO4)c(OC)c1.COc1ccc([C@H]2c3cc4c(cc3OC3(O)COC(=O)[C@@H]23)OCO4)c(OC)c1` (stereo partly specified), the GI50 with SK-MEL-28 was 35.8 µM (inactive); with COLO 205, > 100 µM (inactive); with HT-29, > 100 µM (inactive); in the experiment with HL-60 it was 45.6 µM (inactive); in the experiment with EKVX, > 100 µM (inactive); in the experiment on K562 it was 71.1 µM (inactive). In addition, the GI50 was > 100 µM (inactive) in the experiment on HCT-116; > 100 µM (inactive) in the experiment with IGROV-1; > 100 µM (inactive) with HCC 2998; 41.9 µM (inactive) with RPMI-8226; > 100 µM (inactive) in the experiment with SK-MEL-5; > 100 µM (inactive) in the experiment on HOP-62. Also, the GI50 in the experiment on NCI-H226 is > 100 µM (inactive); with U-251, 41.9 µM (inactive); with HCT-15 it was 37.6 µM; in the experiment on SK-OV-3 it was > 100 µM (inactive); in the experiment with OVCAR-8, > 100 µM (inactive); in the experiment on UO-31, > 100 µM (inactive).
With `CC1(C)N=C(c2ccccc2)SC12S[C@@H]1CCCC[C@H]1S2`, the GI50 with SK-MEL-28 is > 100 µM (inactive); in the experiment with COLO 205, > 100 µM (inactive); in the experiment with HT-29, 94.6 µM (inactive); in the experiment on HL-60, > 100 µM (inactive); in the experiment on EKVX it was > 100 µM (inactive); with K562 it was > 100 µM (inactive). Also, the GI50 in the experiment on HCT-116 was > 100 µM (inactive); in the experiment with CAKI-1 it was > 100 µM (inactive); with NCI-H522 it was > 100 µM (inactive); in the experiment with IGROV-1, > 100 µM (inactive); in the experiment with RPMI-8226 it was 32.2 µM (inactive); with SK-MEL-5, 17.4 µM (inactive). In addition, the GI50 with HOP-62 is > 100 µM (inactive); in the experiment with NCI-H226 it was > 100 µM (inactive); with U-251, > 100 µM (inactive); in the experiment on HCT-15 it was above 100 µM; in the experiment with SK-OV-3 it was > 100 µM (inactive); with OVCAR-8 it was > 100 µM (inactive). Besides, the GI50 in the experiment with UO-31 was > 100 µM (inactive).
For the compound `O=C1c2cc3c(cc2CC1Cc1ccc2c(c1)CCC2)CCC3` (stereo unspecified), the GI50 was > 100 µM (inactive) in the experiment on SK-MEL-28; 25 µM (inactive) in the experiment with COLO 205; 40 µM (inactive) in the experiment with HT-29; 66.2 µM (inactive) in the experiment on HL-60; > 100 µM (inactive) with EKVX; 69.5 µM (inactive) in the experiment on K562. For the same compound, the GI50 in the experiment with HCT-116 is 38.6 µM (inactive); in the experiment on NCI-H522, 24.1 µM (inactive); in the experiment with IGROV-1, 31.6 µM (inactive); in the experiment with HCC 2998 it was 36.7 µM (inactive); with RPMI-8226 it was 40.5 µM (inactive); in the experiment with SK-MEL-5 it was 57.8 µM (inactive). Besides, the GI50 is 72.4 µM (inactive) in the experiment with HOP-62; 24.2 µM (inactive) in the experiment with NCI-H226; 37.3 µM (inactive) in the experiment on U-251; 47.5 µM in the experiment with HCT-15; 85.1 µM (inactive) in the experiment with SK-OV-3; 81.7 µM (inactive) with OVCAR-8. Also, the GI50 with UO-31 was > 100 µM (inactive).
For the compound `CN(C)CCNc1nc2c(c(=O)n(C)c(=O)n2C)n1C`, the GI50 in the experiment on SK-MEL-28, in the experiment on COLO 205, in the experiment with HT-29, in the experiment on HL-60, in the experiment on EKVX and with K562 was > 100 µM (inactive) each time. The GI50 in the experiment on HCT-116, with CAKI-1, with NCI-H522, in the experiment on IGROV-1, with RPMI-8226 and in the experiment on SK-MEL-5 was > 100 µM (inactive) each time. For the same compound, the GI50 in the experiment on HOP-62 was > 100 µM (inactive); with NCI-H226, > 100 µM (inactive); with U-251, > 100 µM (inactive); with HCT-15, above 100 µM; in the experiment with SK-OV-3, > 100 µM (inactive); in the experiment on OVCAR-8, > 100 µM (inactive). For the same compound, the GI50 in the experiment with UO-31 was > 100 µM (inactive).
Consider `CC1(C)OCC(CO)(CO)CO1`, for which the GI50 in the experiment with SK-MEL-28, in the experiment with COLO 205, with HT-29, with HL-60, in the experiment with K562 and in the experiment on HCT-116 was > 100 µM (inactive) throughout. Moreover, the GI50 is > 100 µM (inactive) with NCI-H522; > 100 µM (inactive) in the experiment with HCC 2998; > 100 µM (inactive) with SK-MEL-5; > 100 µM (inactive) in the experiment with NCI-H226; > 100 µM (inactive) in the experiment on U-251; above 100 µM in the experiment with HCT-15. The GI50 in the experiment with SK-OV-3, with OVCAR-8 and in the experiment on UO-31 was > 100 µM (inactive) throughout.
Turning to `CCOC(=O)Cc1cnc(NC(NC(=O)CC)(C(F)(F)F)C(F)(F)F)s1`, the GI50 in the experiment on SK-MEL-28, in the experiment with HT-29, in the experiment on HL-60, with EKVX, in the experiment with K562 and in the experiment with HCT-116 was > 100 µM (inactive) each time. The GI50 is > 100 µM (inactive) in the experiment on NCI-H522; 93.3 µM (inactive) in the experiment on HCC 2998; > 100 µM (inactive) in the experiment on RPMI-8226; > 100 µM (inactive) in the experiment with HOP-62; > 100 µM (inactive) in the experiment on NCI-H226; > 100 µM (inactive) in the experiment with U-251. Moreover, the GI50 is above 100 µM in the experiment on HCT-15, > 100 µM (inactive) with SK-OV-3 and > 100 µM (inactive) in the experiment with UO-31.
With `COc1cc(CCN)c(OC)c(OC)c1`, the GI50 in the experiment on SK-MEL-28 is > 100 µM (inactive); with COLO 205 it was > 100 µM (inactive); in the experiment on HT-29, > 100 µM (inactive); in the experiment with HL-60, 40.4 µM (inactive); in the experiment with EKVX it was > 100 µM (inactive); in the experiment with K562, 62.1 µM (inactive). In addition, the GI50 is 44.4 µM (inactive) in the experiment on HCT-116; > 100 µM (inactive) with CAKI-1; > 100 µM (inactive) with NCI-H522; > 100 µM (inactive) in the experiment on IGROV-1; 93.3 µM (inactive) in the experiment with RPMI-8226; 23.6 µM (inactive) with SK-MEL-5. The GI50 with HOP-62 was > 100 µM (inactive); in the experiment with U-251, > 100 µM (inactive); in the experiment on HCT-15 it was above 100 µM; in the experiment with SK-OV-3, > 100 µM (inactive); in the experiment on OVCAR-8, > 100 µM (inactive); in the experiment with UO-31 it was > 100 µM (inactive).
Take `COc1cc(/N=N\c2cccc(S(=O)(=O)O)c2)ccc1/N=N\c1ccc(/C=C/c2ccc(-n3on3-c3ccc(/C=C/c4ccc(/N=N/c5ccc(/N=N\c6cccc(S(=O)(=O)O)c6)cc5OC)cc4S(=O)(=O)O)c(S(=O)(=O)O)c3)cc2S(=O)(=O)O)c(S(=O)(=O)O)c1`: the GI50 was > 100 µM (inactive) in the experiment on SK-MEL-28; > 100 µM (inactive) in the experiment on COLO 205; > 100 µM (inactive) in the experiment with HT-29; > 80 µM (inactive) in the experiment on HL-60; > 100 µM (inactive) in the experiment with EKVX; > 100 µM (inactive) in the experiment on K562. Moreover, the GI50 with HCT-116, with NCI-H522, in the experiment with IGROV-1, in the experiment on HCC 2998, in the experiment on RPMI-8226 and with SK-MEL-5 was > 100 µM (inactive) in each case. Also, the GI50 is > 100 µM (inactive) in the experiment with HOP-62; > 100 µM (inactive) in the experiment with NCI-H226; > 100 µM (inactive) in the experiment with U-251; above 100 µM in the experiment on HCT-15; > 100 µM (inactive) in the experiment with SK-OV-3; > 100 µM (inactive) in the experiment on OVCAR-8. For the same compound, the GI50 in the experiment with UO-31 is > 100 µM (inactive).
Consider `Oc1nc2ccccc2c2oc3ccccc3c12`, for which the GI50 was > 100 µM (inactive) in the experiment with SK-MEL-28; > 100 µM (inactive) in the experiment on COLO 205; > 100 µM (inactive) with HT-29; 2.9 µM (inactive) in the experiment with EKVX; > 100 µM (inactive) with K562; > 100 µM (inactive) with CAKI-1. Further, the GI50 is > 100 µM (inactive) in the experiment on NCI-H522; > 100 µM (inactive) with IGROV-1; > 100 µM (inactive) in the experiment on HCC 2998; > 100 µM (inactive) with SK-MEL-5; 88.9 µM (inactive) with HOP-62; > 100 µM (inactive) in the experiment with NCI-H226. Moreover, the GI50 is > 100 µM (inactive) in the experiment on U-251; above 100 µM in the experiment on HCT-15; 76 µM (inactive) in the experiment with SK-OV-3; > 100 µM (inactive) in the experiment with OVCAR-8; > 100 µM (inactive) in the experiment with UO-31.
